Test results taken from patent publication US5187156A, “Peptide compounds, processes for preparation thereof and pharmaceutical composition comprising the same” (priority 1988, dated 1993).
Non-standard residues stand in square brackets, D forms with d. Residues, ends and D or L forms follow the SMILES beside them. *: point of attachment. Boc = CC(C)(C)OC(=O)*; OBn = c1ccc(CO*)cc1; For = O=C*

biological target: T1, Substance P receptor (Cavia porcellus, UniProt P30547); assay: 3H-Substance P receptor binding to guinea pig crude lung membrane preparation; conditions: test compound 1 μg/ml; 3H-substance P 1 nM; guinea pig crude lung membrane fraction; 4° C., 30 minutes
T1 construct: from tissue; host or cells: guinea pig (male Hartley) trachea and lung, crude membrane fraction
T1 sequence (P30547 whole entry): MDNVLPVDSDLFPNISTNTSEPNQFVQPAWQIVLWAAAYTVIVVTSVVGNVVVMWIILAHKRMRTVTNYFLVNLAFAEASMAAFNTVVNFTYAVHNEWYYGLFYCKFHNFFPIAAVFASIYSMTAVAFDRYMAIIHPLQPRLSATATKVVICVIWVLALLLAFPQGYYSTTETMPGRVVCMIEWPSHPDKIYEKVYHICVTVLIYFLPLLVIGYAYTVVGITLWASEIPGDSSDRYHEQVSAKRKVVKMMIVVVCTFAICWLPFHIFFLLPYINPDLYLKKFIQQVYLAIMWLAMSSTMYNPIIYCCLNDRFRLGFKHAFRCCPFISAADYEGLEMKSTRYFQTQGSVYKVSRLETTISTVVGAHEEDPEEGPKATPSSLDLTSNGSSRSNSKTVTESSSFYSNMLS
Description: 1. ^3 H-Substance P receptor binding
(a) Crude lung membrane preparation
Male Hartley strain guinea pigs were sacrificed by decapitation. The trachea and lung were removed and homogenized in buffer (0.25M sucrose, 50 mM Tris-HCl pH 7.5, 0.1 mM EDTA) by using Polytoron (Kinematica). The homogenate was centrifuged (1000 xg, 10 min) to remove tissue clumps and the supernatant was centrifuges (14000 xg 20 min) to yield pellets. The pellets were resuspended in buffer (5 mM Tris-HCl pH 7.5), homogenized with a teflon homogenizer and centrifuged (14000 xg, 20 min) to yield pellets which were referred to as crude membrane fractions. The obtained pellets were stored at -70° C. until use.
(b) ^3 H-Substance P binding to preparative membrane
Frozen crude membrane fractions were thawed and resuspended in Medium 1 (50 mM Tris-HCl pH 7.5, 5 mM MnCl2, 0.02% BSA, 2 μg/ml chymostatin, 4 μg/ml leupeptin, 40 μg/ml bacitracin.) ^3 H-substance P (1 nM) was incubated with 100 μl of the membrane preparation in Medium 1 at 4° C. for 30 minutes in a final volume of 500 µl. At the end of the incubation period, reaction mixture was quickly filtered over a Whatman GF/B glass filter (pretreated with 0.1% polyethylene imine for 3 hours prior to use) under aspiration. The filters were then washed four times with 5 ml of the buffer (50 mM Tris-HCl, pH 7.5). The radioactivity was counted in 5 ml of Aquazol-2 in Packerd scintillation counter (Packerd TRI-CARB 4530).

Molecule | inhibition at 1 µg/mL | Inhibition (%)
CC(C)(C)OC(=O)N[C@@H](CCC(N)=O)C(=O)N[C@H](Cc1cn(C=O)c2ccccc12)C(=O)N[C@@H](Cc1ccccc1)C(=O)OCc1ccccc1 [Test Compound (a), Boc-Gln-D-Trp(CHO)-Phe-OBzl] (Boc-Gln-[dW](For)-Phe-OBn) | 100% | –
CC(=O)N[C@@H](CCC(N)=O)C(=O)N[C@H](Cc1cn(C=O)c2ccccc12)C(=O)N[C@@H](Cc1ccccc1)C(=O)OCc1ccccc1 [Test Compound (b), Ac-Gln-D-Trp(CHO)-Phe-OBzl] (Ac-Gln-[dW](For)-Phe-OBn) | 100% | –
CC(C)(C)OC(=O)N[C@@H](CC(N)=O)C(=O)N[C@H](Cc1cn(C=O)c2ccccc12)C(=O)N[C@@H](Cc1ccccc1)C(=O)OCc1ccccc1 [Test Compound (d), Boc-Asn-D-Trp(CHO)-Phe-OBzl] (Boc-Asn-[dW](For)-Phe-OBn) | 99% | –
CC(C)(C)OC(=O)N[C@@H](CO)C(=O)N[C@H](Cc1cn(C=O)c2ccccc12)C(=O)N[C@@H](Cc1ccccc1)C(=O)OCc1ccccc1 [Test Compound (e), Boc-Ser-D-Trp(CHO)-Phe-OBzl] (Boc-Ser-[dW](For)-Phe-OBn) | 99% | –
CN(C)C(=O)CC[C@H](NC(=O)OC(C)(C)C)C(=O)N[C@H](Cc1cn(C=O)c2ccccc12)C(=O)N[C@@H](Cc1ccccc1)C(=O)OCc1ccccc1 [Test Compound (f), Boc-Glu(NMe2)-D-Trp(CHO)-Phe-OBzl] (Boc-Glu(NMe2)-[dW](For)-Phe-OBn) | 100% | –
C[C@@H](O)[C@H](NC(=O)OC(C)(C)C)C(=O)N[C@H](Cc1cn(C=O)c2ccccc12)C(=O)N[C@@H](Cc1ccccc1)C(=O)OCc1ccccc1 [Test Compound (g), Boc-Thr-D-Trp(CHO)-Phe-OBzl] (Boc-Thr-[dW](For)-Phe-OBn) | 100% | –
CN(Cc1ccccc1)C(=O)[C@H](Cc1ccccc1)NC(=O)[C@@H](Cc1cn(C=O)c2ccccc12)NC(=O)[C@H](CCC(N)=O)NC(=O)OC(C)(C)C [Test Compound (h), Boc-Gln-D-Trp(CHO)-Phe-NMeBzl] | 100% | –
C[C@@H](O)[C@H](NC(=O)OC(C)(C)C)C(=O)N[C@H](Cc1cn(C=O)c2ccccc12)C(=O)N[C@@H](Cc1ccccc1)C(=O)N(C)Cc1ccccc1 [Test Compound (i), Boc-Thr-D-Trp(CHO)-Phe-NMeBzl] | 100% | –
CN(C)C(=O)CC[C@H](NC(=O)OC(C)(C)C)C(=O)N[C@H](Cc1cn(C=O)c2ccccc12)C(=O)N[C@@H](Cc1ccccc1)C(=O)N(C)Cc1ccccc1 [Test Compound (j), Boc-Glu(NMe2)-D-Trp(CHO)-Phe-NMeBzl] | 100% | –
CC(=O)N[C@H](C(=O)N[C@H](Cc1cn(C=O)c2ccccc12)C(=O)N[C@@H](Cc1ccccc1)C(=O)N(C)Cc1ccccc1)[C@@H](C)O [Test Compound (k), Ac-Thr-D-Trp(CHO)-Phe-NMeBzl] | 100% | –
CC(=O)N[C@@H](CCC(=O)N(C)C)C(=O)N[C@H](Cc1cn(C=O)c2ccccc12)C(=O)N[C@@H](Cc1ccccc1)C(=O)N(C)Cc1ccccc1 [Test Compound (l), Ac-Glu(NMe2)-D-Trp(CHO)-Phe-NMeBzl] | 100% | –
Z-Gln-D-Trp(CHO) -Phe-OBzl [Test Compound (c)] | – | 93%
